Measurements reported in patent publication US20040258773A1, “Composition and methods for treating subjects with hyperglycemia” (priority 2004, published 2004).

Tested on: 3T3-L1 adipocytes
Experiment: Glucose uptake activity assay (2-deoxy-D-[3H]glucose uptake)
Assay type: cell-based
Conditions: 12-well plates, 15 min incubation, FIG. 1
Experimental: Glucose uptake activity assay. Glucose uptake activity was analyzed by measuring the uptake of 2-deoxy-D-[^3H] glucose as described previously (Sakoda, H, et al. (1999) Diabetes 48: 1365-1371; Garcia de Herreros, A. & Birnbaum, M. J. (1989) J. Biol. Chem. 264: 19994-19999). Briefly, confluent 3T3-L1 adipocytes grown in 12-well plates were washed twice with serum-free DMEM and incubated with 1 mL of the same medium at 37° C. for 2 h. The cells were washed 3 times with Krebs-Ringer-Hepes (KRP) buffer and incubated with 0.9 mL KRP buffer at 37° C. for 30 min. Insulin and/or BE were then added and adipocytes were incubated at 37° C. for 15 min. Glucose uptake was initiated by the addition of 0.1 ml, KRP buffer and 3.7×10^7 Bq/L 2-deoxy-D-[^3H] glucose and 1 mmol/L glucose as final concentrations. After 10 min, glucose uptake was terminated by washing the cells 3 times with cold PBS. The cells were lysed with 0.7 mL of 1% Triton X-100 at 37° C. for 20 min. The radioactivity retained by the cell lysates was determined by a scintillation counter. Nonspecific glucose uptake was measured at a glucose concentration of 100 mmol/L. Assay data were statistically analyzed using the paired Student's t-test, with P<0.05 set as the significant difference level.

## insulin: Bovine insulin from Sigma Chemical, positive control
  stimulation of glucose uptake in 3T3-L1 adipocytes: could stimulate glucose uptake
